Activity calls are given as the source filed them.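 Rule for the calls: active = mean IC50 below 10 µM; inactive = the rest.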 Bounds are passed on as bounds.

IC50 data for 55 compounds are collected here from PubChem BioAssay AID463109 (Sanford-Burnham Center for Chemical Genomics, 2010).

This test addresses Apelin receptor (Homo sapiens) (UniProt P35414). In words: apelin receptor inhibitor analogs – cell-based, luminescence, SAR follow-up (AID 463109). The following applies: CHO-K1 AGTRL-1 PathHunter beta-arrestin luminescence.

Chain of Apelin receptor (Homo sapiens) (P35414 whole entry, looked up): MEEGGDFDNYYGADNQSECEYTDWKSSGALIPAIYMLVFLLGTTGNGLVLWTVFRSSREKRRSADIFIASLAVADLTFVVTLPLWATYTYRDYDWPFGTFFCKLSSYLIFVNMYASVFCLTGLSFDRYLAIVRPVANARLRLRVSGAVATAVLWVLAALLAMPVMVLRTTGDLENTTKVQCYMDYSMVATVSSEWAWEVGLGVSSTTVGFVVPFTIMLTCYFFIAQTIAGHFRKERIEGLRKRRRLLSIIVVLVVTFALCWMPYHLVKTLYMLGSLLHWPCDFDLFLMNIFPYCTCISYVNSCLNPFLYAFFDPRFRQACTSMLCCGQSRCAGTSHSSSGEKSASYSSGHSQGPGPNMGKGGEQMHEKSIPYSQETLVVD

With `CC(=O)c1ccc(N=C2C(=O)Nc3ccccc32)cc1`, the concentration for half-maximal inhibition (IC50) (as a rule, the concentration that inhibits the measured activity by half) is 1.46 µM. Next, `O=c1cc(CSc2ccc(Cl)cc2)nc(-c2ccccn2)[nH]1`: “inactive”. Next, `CC(C)OC(=O)CN1C(=O)C(=O)c2ccccc21`: 4.14 µM; `CCOC(=O)C1=NNC(C(=O)c2ccc(Cl)cc2)C1c1ccccc1` (stereo not given): “inactive”; `CSc1cccc(N=C2C(=O)Nc3ccccc32)c1`: 3.82 µM. In the case of `S=C1NCCc2ccccc2C1c1ccccc1Cl` (stereo not given), the IC50 entry was “inactive”. To `CCN(CC)CC(=O)c1ccc(-c2ccccc2)cc1` belongs “inactive”; to `Cn1c(=O)c(C(=S)NC(=O)C2CC2)c(N)n(Cc2ccccc2)c1=O`, “inactive”; to `Cc1ccc(C(=O)CNc2cc(C)ccc2C)cc1`, 2.31 µM. Next, `O=C(CNc1cccc(Cl)c1)c1ccc(Br)cc1`: > 79 µM (inactive); `COc1ccc(C(=O)CNc2cccc(F)c2)cc1`: “inactive”; `Cc1ccc(N=C2C(=O)Nc3ccccc32)cc1`: “inactive”. Next, `O=c1c2cc(Br)ccc2[nH]c(=S)n1Cc1ccccn1`: “inactive”. Take `O=C(CNS(=O)(=O)c1ccccc1)OCC(=O)c1cccc([N+](=O)[O-])c1`: the IC50 result was “inactive”. For `FC(F)(F)c1cccc(Sc2nc(-c3ccccc3)nnc2C(F)(F)F)c1`, the IC50 entry was “inactive”.

With `O=C(CNc1ccccc1C(=O)O)c1ccccc1`, the IC50 was 2.92 µM. As for `Cc1ccc(OCC(=O)OCC(=O)c2cccc([N+](=O)[O-])c2)cc1C`, the IC50 result was “inactive”.

Consider `Cc1cccc2c1NC(=O)C2=Nc1ccc(Cl)cc1`, for which the IC50 is 8.16 µM. To `COc1ccccc1NCC(=O)c1ccc(Cl)cc1` belongs 3.46 µM; to `Cc1ccc(N=C2C(=O)Nc3ccc(Br)cc32)cc1`, 4.73 µM; to `Cc1ccc(C(=O)CNc2ccccc2)cc1`, 2.81 µM. Next, `O=C(CNc1ccc(Br)cc1)c1ccccc1`: 2.26 µM; `O=C(CNC(=O)c1ccco1)NCC(=O)OCC(=O)c1ccc(Cl)c([N+](=O)[O-])c1`: 5.42 µM. Next, `CC1(C)CC2(CC(c3ccccc3F)c3cc(Cl)c(O)cc3O2)NC(=S)N1` (stereo not given): 5.71 µM; `Cc1ccc(C)c(NCC(=O)c2ccc(Cl)cc2)c1`: 0.886 µM; `Cc1ccc2nc(C)cc(C(=O)OCC(=O)c3ccc(Cl)c([N+](=O)[O-])c3)c2c1`: “inactive”. As to `O=C1Nc2ccccc2C1=Nc1ccc(F)cc1`, the IC50 was 5.95 µM. To `Cc1cc(C)nc(NNS(=O)(=O)c2ccc(F)c(Cl)c2)n1` belongs 2.62 µM; to `COc1ccc(S(=O)(=O)NNc2nc(C)cc(C)n2)cc1[N+](=O)[O-]`, “inactive”.

Turning to `CCOc1ccc(N=C2C(=O)Nc3ccc(C)c(Br)c32)cc1`, the IC50 was 6.58 µM. Next, `CC(C)N1CCc2c(sc(NC(=O)c3cc(-c4cccs4)nc4ccccc34)c2C(N)=O)C1`: “inactive”; `CC(C)Cc1nc2oc3c(Cl)ncnc3c2c2c1CCC2`: “inactive”; `Cc1cc(C)nc(NNS(=O)(=O)c2ccc(Cl)cc2)n1`: 8.98 µM. To `COc1ccc(S(=O)(=O)NNc2nc(C)cc(C)n2)cc1Br` belongs “inactive”; to `Oc1cccc2ccc(/C=C/c3ccccc3Cl)nc12`, “inactive”. For the compound `Cc1cc(C)nc(NNS(=O)(=O)c2c(F)cc(F)cc2Br)n1`, the concentration for half-maximal inhibition (IC50) is 2.9 µM. As to `CC(C(=O)OCC(=O)c1cccc([N+](=O)[O-])c1)N1C(=O)C2C3C=CC(C3)C2C1=O` (stereo not given), the IC50 entry was “inactive”. Next, `O=C(COC(=O)c1cccnc1)c1ccc(Cl)c(Cl)c1`: “inactive”; `O=C(Nc1nc2ccc(F)cc2s1)c1ccccn1`: “inactive”; `O=C(COC(=O)c1ccncc1)c1ccc(Cl)c(Cl)c1`: “inactive”. To `Cc1ccc(N=C2C(=O)Nc3c(C)cccc32)cc1` belongs “inactive”; to `O=C(COC(=O)c1cnccn1)c1ccc(Cl)c([N+](=O)[O-])c1`, 8.31 µM; to `CC(C)(C)c1ccc(-n2nc(C#N)c(Cl)cc2=O)cc1`, 3.53 µM. To `O=C(Nc1nc2c(F)cc(F)cc2s1)c1ccccn1` belongs 7.55 µM; to `O=S(=O)(NN=Cc1ccc(-c2ccccc2Cl)o1)c1ccccc1`, “inactive”; to `COc1cccc(/C=C/c2ccc3cccc(O)c3n2)c1OC`, “inactive”. For the compound `Cc1cccc(N=C2C(=O)Nc3c(Cl)cccc32)c1`, the concentration for half-maximal inhibition (IC50) is 2.3 µM. To `COC(=O)C1NN=C(C(=O)c2ccc(Cl)cc2)C1c1ccc(OC)cc1` (stereo not given) belongs “inactive”; to `COc1ccc(N=C2C(=O)Nc3ccc(C)c(Br)c32)cc1`, > 79 µM (inactive). To `CCC[N+](CC#Cc1ccccc1)(CCC)CC(=O)c1ccc(Cl)cc1` belongs “inactive”; to `CC(=O)Nc1ccc(NC(=O)CCC(=O)OCC(=O)c2ccc(C)c([N+](=O)[O-])c2)cc1`, “inactive”.

In the case of `O=C1Nc2ccccc2C1=Nc1ccc(Br)cc1`, the IC50 is 5.52 µM. Next, `CCC1CCCCN1CC(=O)c1ccc(OC(F)F)cc1` (stereo not given): “inactive”; `CNC(=O)c1nnsc1S(=O)(=O)c1ccc(Cl)cc1`: “inactive”; `NC(=O)c1ccccc1NCC(=O)c1ccc(Cl)cc1`: 2.89 µM.
